# Measured values published in US20250084095A1, “Aminopyrimidine Derivatives as Cyclin-Dependent Kinase Inhibitors” (Accutar Biotechnology Inc., priority 2023, published 2025).
# Test system: Phospho-Rb (Ser807/811) in SW1573-CDK4 KO cells
# Test: Phospho-Rb expression inhibition in SW1573-CDK4 KO cells quantified by in cell Western
# Type: cell-based
# Conditions: Homo sapiens, 24 hours, read-out: SW1573 CDK4 KO pRb IC50
# Experimental: Parental SW1573 cells were obtained from the American Type Culture Collection (ATCC). CDK4 or CDK6 gene in […] cells was knocked out using the CRISPR-Cas9 technology. First, gRNA complex of CDK4 or CDK6 was prepared with Alt-R CRISPR-Cas9 tracrRNA and crRNA CDK4 (5′-[…]-3′ (SEQ ID NO: 4)) or CDK6 (5′-[…]-3′ (SEQ ID NO. 5)) (IDT-Integrated DNA Technologies), and then ribonucleoprotein (RNP) complex of CDK4 or CDK6 was prepared with respective gRNA complex and Alt-R S.p. Cas9 Nuclease V3 (IDT-Integrated DNA Technologies). Next, 5×10^4/10 μL SWJ1573 cells were electroporated with the CDK4 or CDK6 RNP complex and Alt-R Cas9 Electroporation Enhancer using Neon Transfection System (Thermo Fisher). Cells were then plated in a 96-well plate to select single clones for validation of CDK4 or CDK6 knockout by western blot analysis.
# MCF7 cells were obtained from American Type Culture Collection (ATCC, HTB-22). SW1573-CDK6 KO and SW1573-CDK4 KO cells were generated by the CRISPR-Cas9 technology. All cells were plated in 96-well plates (VWR #10062-900, or Corning #3904) in 90 uL culture medium at a density of 20,000 cells/well in the respective growth medium containing 10% FBS and 1% Penicillin Streptomycin, and then incubated at 37° C. overnight. The following day, the test compound was administered to the cells by using 1000× compound stock solution prepared in DMSO at various concentrations. 1000× compound stock solution was first diluted in culturing medium to 10×, then 10 uL compound medium was added to each well in the cell plates. After administration of the compound, the cells were then incubated at 37° C. for 24 hours. Upon completion, the cells were washed with PBS briefly. 150 uL/well of 4% formaldehyde was added and the plates were incubated at room temperature for 20 mins. The cells were washed with PBS briefly, and permeabilized with 150 uL/well of ice cold 100% methanol for 10 mins. The cells were washed with PBS briefly and blocked with 100 uL/well LI-COR blocking buffer for 1 hr at room temperature with gentle shaking. The cells were incubated overnight at 4° C. with 50 uL primary antibody rabbit anti-Phospho-Rb (Ser807/811) (1: 500, Cell Signaling, #8516) and anti-Rb (1:200, Santa Cruz, sc-73598) diluted in Intercept Blocking Buffer (LI-COR, #927-60001) containing 0.1% Tween 20. The next day, the cells were washed with 200 uL PBS containing 0.1% Tween 20, 5×5 mins at room temperature with gentle shaking, and incubated with 50 uL secondary antibody, IRDye® 800CW Goat anti-Rabbit IgG (1:1000, LI-COR, #926-32211) and IRDye®680RD Goat anti-Mouse IgG (1:1000, LI-COR, #926-68070), in LI-COR blocking buffer with 0.2% Tween 20 for 1 hr at room temperature with gentle shaking. The cells were washed with 200 uL PBS containing 0.1% Tween 20, 5×5 mins at room temperature with gentle shaking. The cells were washed with PBS for 5 mins. 100 uL fresh PBS was added to each well and the plates were imaged on a LI-COR Odyssey CLX plate reader.
row,IC50,SMILES
1,> 1000 nM,"CNCc1c(C)c(=O)c2ccc(-c3nc(N[C@@H]4C[C@H]5CO[C@H](O5)[C@H]4O)ncc3F)cc2n1C(C)C [Compound 194, 7-(5-fluoro-2-(((1S,3R,4S,5R)-4-hydroxy-6,8-dioxabicyclo[3.2.1]octan-3-yl)amino)pyrimidin-4-yl)-1-isopropyl-3-methyl-2-((methylamino)methyl)quinolin-4(1H)-one]"
2,> 1000 nM,"CC(C)n1c([C@@H]2CCOC2)nc2c(F)cc(-c3nc(N[C@@H]4C[C@H]5CO[C@H](O5)[C@H]4O)ncc3Cl)cc21 [Compound 268, (1S,3R,4S,5R)-3-((5-chloro-4-(4-fluoro-1-isopropyl-2-((S)-tetrahydrofuran-3-yl)-1H-benzo[d]imidazol-6-yl)pyrimidin-2-yl)amino)-6,8-dioxabicyclo[3.2.1]octan-4-ol]"
3,150 to 1000 nM,"Cc1c(-c2nc(N[C@@H]3C[C@H]4CO[C@H](O4)[C@H]3O)ncc2C(F)F)sc2c(C(C)C)cn(C)c(=O)c12 [Compound 227, 2-(5-(difluoromethyl)-2-(((1S,3R,4S,5R)-4-hydroxy-6,8-dioxabicyclo[3.2.1]octan-3-yl)amino)pyrimidin-4-yl)-7-isopropyl-3,5-dimethylthieno[3,2-c]pyridin-4(5H)-one]"
4,> 1000 nM,"CC(C)n1c(CN2[C@@H](C)COC[C@@H]2C)c(F)c(=O)c2ccc(-c3nc(N[C@@H]4C[C@H]5CO[C@H](O5)[C@H]4O)ncc3Cl)cc21 [Compound 201, 7-(5-chloro-2-(((1S,3R,4S,5R)-4-hydroxy-6,8-dioxabicyclo[3.2.1]octan-3-yl)amino)pyrimidin-4-yl)-2-(((3S,5S)-3,5-dimethylmorpholino)methyl)-3-fluoro-1-isopropylquinolin-4(1H)-one]"
5,> 1000 nM,"CC(C)n1c([C@H]2CCOC2)nc2c(F)cc(-c3nc(N[C@@H]4C[C@H]5CO[C@H](O5)[C@H]4O)ncc3F)cc21 [Compound 269, (1S,3R,4S,5R)-3-((5-fluoro-4-(4-fluoro-1-isopropyl-2-((R)-tetrahydrofuran-3-yl)-1H-benzo[d]imidazol-6-yl)pyrimidin-2-yl)amino)-6,8-dioxabicyclo[3.2.1]octan-4-ol]"
6,> 1000 nM,"CC(C)n1c(C(C)(C)O)nc2c(F)cc(-c3nc(N[C@@H]4C[C@H]5CO[C@H](O5)[C@H]4O)ncc3Cl)cc21 [Compound 1, (1S,3R,4S,5R)-3-((5-chloro-4-(4-fluoro-2-(2-hydroxypropan-2-yl)-1-isopropyl-1H-benzo[d]imidazol-6-yl)pyrimidin-2-yl)amino)-6,8-dioxabicyclo[3.2.1]octan-4-ol]"
7,> 1000 nM,"CC(C)n1c(N2C(=O)OC[C@@H]2C)nc2c(F)cc(-c3nc(N[C@@H]4C[C@H]5CO[C@H](O5)[C@H]4O)ncc3Cl)cc21 [Compound 298, (S)-3-(6-(5-chloro-2-(((1S,3R,4S,5R)-4-hydroxy-6,8-dioxabicyclo[3.2.1]octan-3-yl)amino)pyrimidin-4-yl)-4-fluoro-1-isopropyl-1H-benzo[d]imidazol-2-yl)-4-methyloxazolidin-2-one]"
8,> 1000 nM,"CC(C)n1c(CN2[C@@H](C)COC[C@@H]2C)cc(=O)c2ccc(-c3nc(N[C@@H]4C[C@H]5CO[C@H](O5)[C@H]4O)ncc3Cl)cc21 [Compound 205, 7-(5-chloro-2-(((1S,3R,4S,5R)-4-hydroxy-6,8-dioxabicyclo[3.2.1]octan-3-yl)amino)pyrimidin-4-yl)-2-(((3S,5S)-3,5-dimethylmorpholino)methyl)-1-isopropylquinolin-4(1H)-one]"
9,> 1000 nM,"Cc1nc2c(F)cc(-c3nc(N[C@@H]4C[C@H]5CO[C@H](O5)[C@H]4O)ncc3Cl)cc2n1C(C)C [Compound 25, (1S,3R,4S,5R)-3-((5-chloro-4-(4-fluoro-1-isopropyl-2-methyl-1H-benzo[d]imidazol-6-yl)pyrimidin-2-yl)amino)-6,8-dioxabicyclo[3.2.1]octan-4-ol]"
10,150 to 1000 nM,"Cc1c(CN2[C@@H](C)COC[C@@H]2C)n(C(C)C)c2cc(-c3nc(N[C@@H]4C[C@H]5CO[C@H](O5)[C@H]4O)ncc3Cl)ccc2c1=O [Compound 206, 7-(5-chloro-2-(((1S,3R,4S,5R)-4-hydroxy-6,8-dioxabicyclo[3.2.1]octan-3-yl)amino)pyrimidin-4-yl)-2-(((3S,5S)-3,5-dimethylmorpholino)methyl)-1-isopropyl-3-methylquinolin-4(1H)-one]"
11,> 1000 nM,"CC(C)n1c([C@@H]2CCOC2)nc2c(F)cc(-c3nc(N[C@@H]4C[C@H]5CO[C@H](O5)[C@H]4O)ncc3F)cc21 [Compound 270, (1S,3R,4S,5R)-3-((5-fluoro-4-(4-fluoro-1-isopropyl-2-((S)-tetrahydrofuran-3-yl)-1H-benzo[d]imidazol-6-yl)pyrimidin-2-yl)amino)-6,8-dioxabicyclo[3.2.1]octan-4-ol]"
12,150 to 1000 nM,"CC(C)n1c([C@@H]2CC2(F)F)nc2c(F)cc(-c3nc(N[C@@H]4C[C@H]5CO[C@H](O5)[C@H]4O)ncc3Cl)cc21 [Compound 216, (1S,3R,4S,5R)-3-((5-chloro-4-(2-((S)-2,2-difluorocyclopropyl)-4-fluoro-1-isopropyl-1H-benzo[d]imidazol-6-yl)pyrimidin-2-yl)amino)-6,8-dioxabicyclo[3.2.1]octan-4-ol]"
13,> 1000 nM,"CC(C)n1c(CN2CC[C@@H](F)C2)c(F)c(=O)c2ccc(-c3nc(N[C@@H]4C[C@H]5CO[C@H](O5)[C@H]4O)ncc3F)cc21 [Compound 202, 3-fluoro-7-(5-fluoro-2-(((1S,3R,4S,5R)-4-hydroxy-6,8-dioxabicyclo[3.2.1]octan-3-yl)amino)pyrimidin-4-yl)-2-(((R)-3-fluoropyrrolidin-1-yl)methyl)-1-isopropylquinolin-4(1H)-one]"
14,150 to 1000 nM,"Cc1c(C(C)(C)O)cnc2c(F)cc(-c3nc(N[C@@H]4C[C@H]5CO[C@H](O5)[C@H]4O)ncc3Cl)cc12 [Compound 257, (1S,3R,4S,5R)-3-((5-chloro-4-(8-fluoro-3-(2-hydroxypropan-2-yl)-4-methylquinolin-6-yl)pyrimidin-2-yl)amino)-6,8-dioxabicyclo[3.2.1]octan-4-ol]"
15,150 to 1000 nM,"Cc1c(-c2nc(N[C@@H]3C[C@H]4CO[C@H](O4)[C@H]3O)ncc2Cl)sc2c(C(C)C)cnnc12 [Compound 259, (1S,3R,4S,5R)-3-((5-chloro-4-(4-isopropyl-7-methylthieno[3,2-c]pyridazin-6-yl)pyrimidin-2-yl)amino)-6,8-dioxabicyclo[3.2.1]octan-4-ol]"
16,150 to 1000 nM,"Cc1c(-c2nc(N[C@@H]3C[C@H]4CO[C@H](O4)[C@H]3O)ncc2F)sc2c(Cl)c(C(C)(C)O)cnc12 [Compound 276, (1S,3R,4S,5R)-3-((4-(7-chloro-6-(2-hydroxypropan-2-yl)-3-methylthieno[3,2-b]pyridin-2-yl)-5-fluoropyrimidin-2-yl)amino)-6,8-dioxabicyclo[3.2.1]octan-4-ol]"
17,> 1000 nM,"Cc1c(-c2nc(N[C@@H]3C[C@H]4CO[C@H](O4)[C@H]3O)ncc2Cl)sc2c(C)c(C(C)(C)O)cnc12 [Compound 277, (1S,3R,4S,5R)-3-((5-chloro-4-(6-(2-hydroxypropan-2-yl)-3,7-dimethylthieno[3,2-b]pyridin-2-yl)pyrimidin-2-yl)amino)-6,8-dioxabicyclo[3.2.1]octan-4-ol]"
18,150 to 1000 nM,"CC(C)(O)c1cnc2c(F)cc(-c3nc(N[C@@H]4C[C@H]5CO[C@H](O5)[C@H]4O)ncc3Cl)cc2c1Cl [Compound 252, (1S,3R,4S,5R)-3-((5-chloro-4-(4-chloro-8-fluoro-3-(2-hydroxypropan-2-yl)quinolin-6-yl)pyrimidin-2-yl)amino)-6,8-dioxabicyclo[3.2.1]octan-4-ol]"
19,40 to 150 nM,"Cc1c(-c2nc(N[C@@H]3C[C@H]4CO[C@H](O4)[C@H]3O)ncc2Cl)sc2c(C(C)C)cn(C)c(=O)c12 [Compound 223, 2-(5-chloro-2-(((1S,3R,4S,5R)-4-hydroxy-6,8-dioxabicyclo[3.2.1]octan-3-yl)amino)pyrimidin-4-yl)-7-isopropyl-3,5-dimethylthieno[3,2-c]pyridin-4(5H)-one]"
